Data from US20060270648A1, “USE OF POLYAMINES WITH ANTIBIOTICS” (priority 2005, published 2006).
Values after ≈ are worked out from the molar mass of the structure shown. Like-named read-outs stand apart in the source and are kept apart here.

Legend:
P. aeruginosa PAO1 [1] = experiment: MIC of antibiotics against P. aeruginosa PAO1 with or without polyamines; type: cell-based
Protocol: (§1) Various strains of bacteria, including P. aeruginosa and e. coli were grown on Luria-Bertani (LB) agar/broth or Mueller-Hinton (MH) agar/broth. […] The antibiotics, chemicals, and/or polyamines were dissolved in double distilled water or solvent and thereafter filtered through a 0.4 μm disposable membranes.
(§2) The MIC values of the strains associated with various combinations of polyamines and antibiotics were determined using standard two-fold agar dilutions techniques and broth dilutions techniques in Mueller-Hinton broth. The lowest concentration of drug with no visible turbidity was deemed the MIC.

P. aeruginosa PAO1 [2] = experiment: Time killing assay of P. aeruginosa PAO1 in human serum (FIG. 4); type: cell-based
Protocol: Time-killing assays were performed for various bacteria samples. Briefly, the tested bacteria were grown to mid-log phase in Mueller-Hinton broth media. […] As a control group, cells were diluted in a sodium phosphate without any additional compounds. Aliquots were withdrawn at specific time intervals and spread on LB agar plates and incubated overnight at 37 C. The percent of colonies that survived were determined relative to the control.

[3] = tested on: outer membrane permeability; experiment: Outer membrane permeabilization assay (β-lactamase activity in whole cells or released into suspension); type: cell-based; details: 20 mM (FIG. 7)
Protocol: The β-lactamase activity was determined by a spectrophotometric method using nitrocefin as a substrate. After the β-lactamase was extracted from the cells, the β-lactamase activity was monitored by absorbance changes in wavelength at 486 nm with a molar extinction coefficient of 20500. The extent of hydrolysis was a reflection of the amount of enzyme remaining uninhibited.
An outer membrane permeabilization assay was performed by examining the release of the chromosomally encoded β-lactamase. Briefly, stationary phase cells were diluted 1:59 into 20 mL pre-warmed MMP broth and cultured in an incubator at 350 rpm and at 37 C for 5 hours. After carbenicillin (200 μg/mL) was added to induce β-lactamase activity, the culture was incubated for additional 5 hours. The cells were harvested by centrifugation at 5,000×g for 10 minutes and washed once with 0.05M sodium phosphate buffer at pH 7.2. The cell pellet was resuspended in 5 mL of the same buffer and divided into 1 mL aliquots. […] […] The reaction mixtures were incubated at room temperature for 5 minutes and immediately centrifuged at full speed (15000×g) for 20 minutes and the supernatant was used for β-lactamase sources. β-lactamase activity was determined as described above using 300 μL of the supernatant.

[4] = tested on: MRSA Staphylococcus aureus 700699; experiment: MIC of antibiotics against MRSA Staphylococcus aureus 700699 with or without spermine; type: cell-based
E. coli K10 = experiment: MIC of carbenicillin against E. coli K10 with divalent ions or salt and polyamines; type: cell-based; details: Escherichia coli, read-out: MICs to carbenicillin
Protocol: as §1, §2

[5] = tested on: E. coli (K10, K12, C921-61); experiment: MIC of antibiotics against E. coli strains with or without polyamines (FIG. 3); type: cell-based; details: E. coli K10, K12, C921-61 and S. typhimurium LT2
Protocol: as §1, §2

[6] = tested on: Salmonella typhimurium LT2; experiment: microbe, parasite or virus in culture; details: Salmonella enterica, read-out: MICs in the indicated concentrations (mM) of polyamines: No add;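 note: Two-fold agar or broth dilution in Mueller-Hinton broth, MIC taken as lowest drug concentration without visible turbidity, tested alone or combined with polyamines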
Protocol: as §1, §2

[7] = tested on: methicillin resistant Staphylococcus aureus (MRSA) Mu50; experiment: MIC of antibiotics against MRSA Mu50 with or without spermine; type: cell-based
[8] = tested on: Salmonella typhimurium LT2;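 note: Two-fold agar or broth dilution in Mueller-Hinton broth, MIC taken as lowest drug concentration without visible turbidity, tested alone or combined with polyamines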
Protocol: as §1, §2

NCCCNCCCCNCCCN [Spermine]
MICs to carbenicillin in the indicated concentration of polyamines (P. aeruginosa PAO1 [1]; 0 mM polyamine): 64 µg/mL | MICs to carbenicillin in the indicated concentration of polyamines (P. aeruginosa PAO1 [1]; 0.5 mM polyamine): 16 µg/mL | MICs to carbenicillin in the indicated concentration of polyamines (P. aeruginosa PAO1 [1]; 1 mM polyamine): 4 µg/mL | MICs to carbenicillin in the indicated concentration of polyamines (P. aeruginosa PAO1 [1]; 5 mM polyamine): 4 µg/mL | MICs to carbenicillin in the indicated concentration of polyamines (P. aeruginosa PAO1 [1]; 10 mM polyamine): 4 µg/mL | MICs to carbenicillin in the indicated concentration of polyamines (P. aeruginosa PAO1 [1]; 20 mM polyamine): 4 µg/mL | growth of P. aeruginosa PAO1 in human serum (P. aeruginosa PAO1 [2]; presence or absence of 2 mM spermine): not affected | β-lactamase activity detected [3]: only a very low level

CC1(C)S[C@@H]2[C@H](NC(=O)C(C(=O)O)c3ccccc3)C(=O)N2[C@H]1C(=O)O (stereo partly drawn) [Carbenicillin]
MIC ([4]; Staphylococcus aureus, MRSA, no spermine, read-out: MICs in the absence or presence of spermine: No add): 256 µg/mL | MICs in the absence or presence of spermine: Spermine (1 mM) ([4]; with 1 mM spermine): 4 µg/mL | MIC (E. coli K10; K10, MHB + 1 mM CaCl2, Spermidine (10 mM)): 2 µg/mL | MIC (E. coli K10; K10, MHB + 1 mM CaCl2, Spermine (1 mM)): 1 µg/mL | MIC (E. coli K10; K10, MHB + 1 mM CaCl2, no polyamine): 16 µg/mL | MIC (E. coli K10; K10, MHB + 1 mM MgSO4, Spermidine (10 mM)): 4 µg/mL | MIC (E. coli K10; K10, MHB + 1 mM MgSO4, Spermine (1 mM)): 1 µg/mL | MIC (E. coli K10; K10, MHB + 1 mM MgSO4, no polyamine): 16 µg/mL | MIC (E. coli K10; K10, MHB + 3 mM CaCl2, Spermidine (10 mM)): 4 µg/mL | MIC (E. coli K10; K10, MHB + 3 mM CaCl2, Spermine (1 mM)): 4 µg/mL | MIC (E. coli K10; K10, MHB + 3 mM CaCl2, no polyamine): 16 µg/mL | MIC (E. coli K10; K10, MHB + 3 mM MgSO4, Spermidine (10 mM)): 4 µg/mL | MIC (E. coli K10; K10, MHB + 3 mM MgSO4, Spermine (1 mM)): 4 µg/mL | MIC (E. coli K10; K10, MHB + 3 mM MgSO4, no polyamine): 16 µg/mL | MIC (E. coli K10; K10, MHB + 100 mM NaCl, Spermidine (10 mM)): 4 µg/mL | MIC (E. coli K10; K10, MHB + 100 mM NaCl, Spermine (1 mM)): 4 µg/mL | MIC (E. coli K10; K10, MHB + 100 mM NaCl, no polyamine): 16 µg/mL | MIC (E. coli K10; K10, MHB + 150 mM NaCl, Spermidine (10 mM)): 4 µg/mL | MIC (E. coli K10; K10, MHB + 150 mM NaCl, Spermine (1 mM)): 4 µg/mL | MIC (E. coli K10; K10, MHB + 150 mM NaCl, no polyamine): 16 µg/mL | MIC (E. coli K10; K10, MHB medium, no supplement, Spermidine (10 mM)): 4 µg/mL | MIC (E. coli K10; K10, MHB medium, no supplement, Spermine (1 mM)): 1 µg/mL | MIC (E. coli K10; K10, MHB medium, no supplement, no polyamine): 16 µg/mL | susceptibility with the combination of polyamines and antibiotics [5]: improved susceptibility | MIC [6]: 8 µg/mL (≈ 21.1 µM) | MIC ([7]; Staphylococcus aureus, MRSA, no spermine, read-out: MICs in the presence or absence of spermine (1 mM): No add): 256 µg/mL | MICs in the presence or absence of spermine (1 mM): Spermine ([7]; with 1 mM spermine): 4 µg/mL | growth of P. aeruginosa PAO1 in human serum (P. aeruginosa PAO1 [2]; 16 μg/mL carbenicillin alone): initial inhibition, this inhibition was followed by a full recovery of growth | percent of the inoculants killed in human serum (P. aeruginosa PAO1 [2]; 2 mM spermine added along with 16 μg/mL carbenicillin, 24 hours): more than 99% | MICs in the indicated concentrations (mM) of polyamines: Spermine (1 mM) ([8]; with 1 mM spermine): 1 µg/mL | MICs in the indicated concentrations (mM) of polyamines: Spermidine (20 mM) ([8]; with 20 mM spermidine): 2 µg/mL
